The values below come from patent US10238680B2, “D-amino acid phosphoramidate pronucleotides of halogeno pyrimidine compounds for liver disease” (priority 2013, dated 2019).

Experiment [1] deals with T1, wild-type HCV genotype 1b NS5B polymerase (Hepatitis C virus genotype 1b, UniProt Q9WMX2).
T1 construct: approximately 65 kDa HCV genotype 1b NS5B protein were used to generate recombinant HCV polymerases (with a deletion of the 21 carboxy terminal amino acids); made in house
Nature of the experiment: HCV polymerase enzyme assay, wild-type. In kind it is biochemical. From the text:
Test compounds in the form of nucleoside triphosphates were examined for inhibitory activity against purified HCV polymerase in a standard assay. Bacterial expression constructs encoding the approximately 65 kDa HCV genotype 1b NS5B protein were used to generate recombinant HCV polymerases (with a deletion of the 21 carboxy terminal amino acids). The wild-type genotype 1b protein was expressed and purified for use in the enzymatic activity assay.
The enzymatic activity assay measured the inhibitory effect of increasing concentrations of test compound on the incorporation of α-[^33P]-labeled nucleotide into trichloroacetic acid-precipitable material. Recombinant polymerase and synthetic RNA template were combined in reaction buffer containing three unlabeled ribonucleoside triphosphates, one α-[^33P]-labeled ribonucleosidee triphosphate and eight concentrations of test compound in three-fold dilutions. Reactions were incubated for two hours at 30° C.
Reactions were terminated by the addition of ice-cold trichloroacetic acid and sodium pyrophosphate to promote precipitation of newly-synthesized ribonucleic acid. Precipitable material from the reactions was collected by filtration onto 96-well filter plates, washed extensively with water, and quantified by liquid scintillation.
The inhibitory activity of test compounds was determined by fitting results to dose-response curves using XLfit software.

For another experiment, the target named is T2, HCV polymerase S282T (Hepatitis C virus genotype 1b, UniProt Q9WMX2, S2701T).
T2 construct: approximately 65 kDa HCV genotype 1b NS5B protein were used to generate recombinant HCV polymerases (with a deletion of the 21 carboxy terminal amino acids); made in house
The experiment is described as follows: HCV polymerase enzyme assay, S282T. The experiment is classed as biochemical.

Bounds are passed on as bounds.

The IC50 is the point on the concentration scale where inhibition reaches its midpoint. A low value points to greater potency in that assay.

Take `C[C@@]1(O)[C@H](O)[C@@H](COP(=O)(O)OP(=O)(O)OP(=O)(O)O)O[C@H]1n1cc(F)c(N)nc1=O` [Compound 302]: the IC50 in experiment [1] is below 250 nM.

`C[C@@]1(Cl)[C@H](O)[C@@H](COP(=O)(O)OP(=O)(O)OP(=O)(O)O)O[C@H]1n1cc(F)c(N)nc1=O` [Compound 303]: in experiment [1], the IC50 lay in the range of 250 to 1000 nM. Consider `C[C@@]1(F)[C@H](O)[C@@H](COP(=O)(O)OP(=O)(O)OP(=O)(O)O)O[C@H]1n1cc(F)c(=O)[nH]c1=O` [Compound 304], for which the concentration for half-maximal inhibition (IC50) was 1 to 10 µM against HCV polymerase S282T and below 250 nM in experiment [1]. In experiment [1], `C[C@@]1(Cl)[C@H](O)[C@@H](COP(=O)(O)OP(=O)(O)OP(=O)(O)O)O[C@H]1n1cc(F)c(=O)[nH]c1=O` [Compound 301] displayed an IC50 of 250 to 1000 nM.
